Tests used:
[1] = plasma half-life of elimination, two-way crossover oral/intravenous study in dogs; format: in vivo, mongrel dogs; conditions: 10 mg/kg, average of oral and intravenous testing, dog plasma, HPLC; read-out: mean apparent terminal half-life of elimination (converted)
Experimental: Tests were conducted in order to compare the apparent half-life of elimination in the animal bloodstream of compounds of the present invention with that of the parent prior art compounds of which they are the metabolites as follows:
A two-way crossover study was conducted on male and female adult mongrel dogs. Each dog, after overnight fasting, received a single oral or intravenous dose of 10 mg/kg of test drug in 75% PEG in water and in such concentration that each dog received 1 ml of solution/kg of body weight. Oral doses were administered by using a glass syringe attached to a Levin® tube (size 18 French) which served as the stomach tube. […] Plasma levels of the test drug in the samples were determined by the HPLC method described by Osman, M. A.; Pinchbeck, F. M.; Cheng, L. K.; and Wright, G. J. described in the Journal of Chromatography, 336 (1981). […] The test drug being measured and the internal standard were then extracted from the plasma into a mixture of hexane, methylene chloride and butanol. […] The final solution was chromatographed on a Waters® column C18 reverse-phase system, the samples being analyzed in sequential order starting with the 0-hr sample (control) and proceeding to the 24 hr sample for the same animal. Duplicate assays were carried out for each sample and the mean value was recorded. […]

[2] = anticonvulsant activity against Metrazole (pentylenetetrazol) s.c. in mice, method of Swinyard; format: in vivo; conditions: for Number Protected / Number Tested: 1/2 hr before 80 mg/kg s.c. Metrazole; for ED50: Mus musculus, ip, 80 mg/kg s.c. Metrazole, probit analysis, read-out: ED50 and (Confidence Limits)
Source text: The procedure for testing the compounds for their anticonvulsant activity and comparison with prior art compounds is based on evaluation techniques published by Swinyard, E. A. in EPILEPSIA 10: 107-19 (1969) and in J. PHARMAC. EXPTL. THERAP. 106: 319-30 (1952) as explained in greater detail below.
A comparison was made of anti-convulsant activity of the compound of Example 1 and the prior art methyl analog (U.S. Pat. No. 4,226,861, Example 4) using metrazole as the convulsant by the method of Swinyard (See above citation).
Ninety-six adult female mice weighing 24-32 g were randomly assigned to dosage groups according to the method of Steel, R. G. D. and Torrie, J. H. (1960) in "Principles and Procedures of Statistics," McGraw-Hill Book Company, Inc., pp 99-100, pp 428-31. Each mouse was identified with a color code on its tail. The test compounds were administered as suspensions in 10 ml/kg mouse body weight of 0.5% aqueous methyl cellulose within 15 minutes of preparation of the suspension. Metrazole (pentylenetetrazol) was prepared as a solution in physiological saline. The mice were not fasted prior to the test. Eight mice were tested at each dosage level.
Each mouse received one dose of the test drug in the 0.5% aqueous methylcellulose or the control article (0.5% aqueous methylcellulose alone) intraperitoneally. Metrazole (80 mg/kg S.C.) was then given in a loose fold of skin on the back of the neck; i.e., 1/2 hr after the test compound or control article was given. Injections were given with a 1-ml glass tuberculin syringe with appropriate size hypodermic needle (27 gauge for solutions; 23 gauge for suspensions). All injections were given in a volume of 10 ml/kg mouse body weight. […] Anticonvulsant data were tabulated as the percent protection, i.e., [formula] The ED50 and (95% confidence limits) and potency ratio were ascertained by the computer-based probit analysis ascribed to Finney, D. J. (1964) Statistical Method in Biological Assay., 2nd Ed., New York. Hefner Publishing Co. Results are in Table A. Statistical analysis of the data indicated no significant difference in anti-convulsant potency between the two compounds.
(a) All mice were first injected with 10 ml/kg of 0.5% aqueous
methylcellulose intraperitoneally in which test compound was suspended if
(b) 80 mg/kg Metrazole in 10 ml saline of mouse body weight was
administered to all mice subcutaneously in a loose fold of skin on the
back of the neck onehalf hr. after administration of test compound.

For `NC(=O)N1CC(Oc2cccc(C(F)(F)F)c2)C1` [Example 1, 3-[3-(Trifluoromethyl)phenoxy]-1-azetidinecarboxamide], the half-life [1] was 2.4 ± 0.4 h, the “Number Protected / Number Tested” value ([2]; 45 mg/kg i.p.) was 1/8 and the “Number Protected / Number Tested” value ([2]; 67 mg/kg i.p.) was 2/8. The “Number Protected / Number Tested” value ([2]; 100 mg/kg i.p.) was 4/8, the “Number Protected / Number Tested” value ([2]; 150 mg/kg i.p.) was 5/8 and the “Number Protected / Number Tested” value ([2]; 225 mg/kg i.p.) was 8/8. The ED50 [2] was 99.2 mg/kg and the “Potency and 95% Confidence Limits” value ([2]; potency ratio, prior art compound 1.00, i.p.) was 0.92.

For `CNC(=O)N1CC(Oc2cccc(C(F)(F)F)c2)C1` [Example 4 of U.S. Pat. No. 4,226,861, N-methyl-3-(3-trifluoromethyl) phenoxy-1-azetidinecarboxamide, reference compound], the half-life [1] was 1.3 ± 0.4 h, the “Number Protected / Number Tested” value ([2]; 45 mg/kg i.p.) was 1/8 and the “Number Protected / Number Tested” value ([2]; 67 mg/kg i.p.) was 2/8. The “Number Protected / Number Tested” value ([2]; 100 mg/kg i.p.) was 3/8, the “Number Protected / Number Tested” value ([2]; 150 mg/kg i.p.) was 8/8 and the ED50 [2] was 90.9 mg/kg.

From patent publication US4571393A, “3-Phenoxy-1-azetidinecarboxamides” (A. H. Robins Company, Incorporated, priority 1984, dated 1986)
